Patent US4898855A, “Deuterated analogs of 1,25-dihydroxycholecalciferol” (Hoffman-La Roche Inc., priority 1987, dated 1990)
Like-named read-outs stand apart in the source and are kept apart here.

Columns and labels:
[1] = system: intestinal ^45 Ca transport (ICA); assay: Stimulation of intestinal calcium absorption in rat (everted gut sac); assay type: in vivo; details: 12.5 ng/rat intrajugularly, 18 hours after injection, vitamin D-deficient low calcium diet
vitamin D deficient rats = assay type: in vivo, rat; details: for Bone Mass: histomorphometric
Method: Rats were placed on the following protocol. […]
Ten 3 week old rats were maintained on vitamin D3 deficient diet for 6 weeks.
The following parameters in Table III were evaluated, by means which are conventional in the art, after completion the above treatments. Bone mass is measured by known histomorphometric methods.

[2] = system: porcine growth-plate cartilage; assay: Stimulation of porcine cartilage growth in vitro (organ culture of fetal pig scapula growth-plates); assay type: cell-based; details: for Porcine cartilage in vitro, % increase, dry weight: 14-17 days incubation
Method: Organ cultures of growth-plates from the scapula cartilages of fetal pigs were performed using methods previously described. (Burch WM, Lebovitz HE (1982) "Triiodothyronine stimulates maturation of porcine growth-plate cartilage in vitro." J. Clin. Investig. (70: 496.) Growth-plates (n=12/treatment group) were isolated aseptically, wet weight obtained, and then placed into individuals wells of 24 well-plastic culture plates. Growth-plates were incubated in 1.5 ml of MEM (Joklik-Modified) containing 0.5% BSA for 14-17 days. The medium was changed and fresh additives introduced every 4-5 days. This medium (MEM) was chosen because it contained antibiotics which allowed relatively long-term culture without contamination. BGJb. (Fitton-Jackson modification) medium with addition of antibiotics has also been used with similar results. At the end of the incubation, growth-plates were weighed for wet weight, then air dried for dry weight. The change in growth-plate wet weights were determined and the cartilages were photographed.

[3] = system: embryonic chick pelvic cartilage; assay: Stimulation of avian cartilage growth in vitro (organ culture of embryonic chick pelvic cartilage); details: for Avian cartilage in vitro, % increase, dry weight: 3-day incubation
Bone Ca resorption (BCR) = assay: Bone calcium mobilization in rat (plasma Ca increase); assay type: in vivo; details: 12.5 ng/rat intrajugularly, 18 hours after injection, vitamin D-deficient low calcium diet
Method: Male weanling rats (Holtzman, Madison WI.) were housed individually in overhanging wire cages and were fed a vitamin D-deficient diet containing low calcium (0.005%) and normal phosphorus (0.3%). Test compounds were dissolved in 10-20 μl of ethanol. Plasma (1.8 ml), collected from vitamin D, deficient rats was added to the ethanol solution. The test compounds were given intrajugularly in 0.3 ml of the ethanol-plasma carrier solution. Controls received carrier alone.
Bone Ca resorption (BCR) was estimated by mesuring the blood Ca increase in the treated rats. Blood was collected in heparinized tubes and centrifuged. The resulting plasma was measured for calcium concentration by atomic absorption spectroscopy. Since rats were fed a diet essentially devoid of Ca, plasma Ca increases reflected mobilization of Ca from bone, not intestinal Ca absorption.

[4] = high dose: daily 60 ng 1,25-(OH)2 D3 or 66 ng Hexa ^2 H, 3 weeks, vitamin D3 deficient diet
[5] = low dose: daily 15 ng 1,25-(OH)2 D3 or 16.5 ng Hexa ^2 H, 3 weeks, vitamin D3 deficient diet

With `[2H]C([2H])([2H])C(O)(CCC[C@@H](C)[C@H]1CC[C@H]2/C(=C/C=C3/C[C@@H](O)C[C@H](O)C3=C)CCC[C@]12C)C([2H])([2H])[2H]` [1,25-(OH)2 D3 -Hexa^2 H, 26,26,26,27,27,27-hexadeutero-1α,25-dihydroxycholecalciferol] the “% of 1,25-(OH)2 D3 effect in rat, intestinal calcium absorption” value [1] was 92%, the “Body Weight” value (vitamin D deficient rats; [4]) was 163 ± 7.2 gr and the “Serum Ca^2+” value (vitamin D deficient rats; [4]) was 11.20 ± 0.28 mg/dL. The “Serum Creatinine” value (vitamin D deficient rats; [4]) was 0.36 ± 0.04 mg/dL, the “Bone Mass” value (vitamin D deficient rats; [4]) was 371 ± 68 ^mm.spsp.3 /cm^3 and the “Body Weight” value (vitamin D deficient rats; [5]) was 193 ± 5 gr. The “Serum Ca^2+” value (vitamin D deficient rats; [5]) was 11.28 ± 0.26 mg/dL, the “Serum Creatinine” value (vitamin D deficient rats; [5]) was 0.36 ± 0.02 mg/dL and the “Bone Mass” value (vitamin D deficient rats; [5]) was 288 ± 58 ^mm.spsp.3 /cm^3. For the same molecule, the “activity in increasing bone mass compared with 1,25-(OH)2 D3” value (vitamin D deficient rats; summary of Table III) was “more active than 1,25-(OH)2 D3”, the “activity in inducing hypercalcemia compared with 1,25-(OH)2 D3 (serum Ca^2+)” value (vitamin D deficient rats; summary of Table III) was “not as active as 1,25-(OH)2 D3” and the “Porcine cartilage in vitro, % increase, ^3 H” value ([2]; 10^-10 M) was 215.7%. The “Porcine cartilage in vitro, % increase, ^35 S” value ([2]; 10^-10 M) was 466.0%, the “Porcine cartilage in vitro, % increase, dry weight” value ([2]; 10^-10 M) was 57.6% and the “Porcine cartilage in vitro, % increase, ^3 H” value ([2]; 10^-11 M) was 123.6%. For the same molecule, the “Porcine cartilage in vitro, % increase, ^35 S” value ([2]; 10^-11 M) was 203.2%, the “Porcine cartilage in vitro, % increase, dry weight” value ([2]; 10^-11 M) was 40.9% and the “Porcine cartilage in vitro, % increase, dry weight” value ([2]; 10^-12 M) was 31.5%. For the same molecule, the “Porcine cartilage in vitro, % increase, dry weight” value ([2]; 10^-13 M) was 29.5%, the “Avian cartilage in vitro, % increase, ^3 H proline” value ([3]; 10^-9 M) was 148.3% and the “Avian cartilage in vitro, % increase, ^35 S” value ([3]; 10^-9 M) was 41.0%. For the same molecule, the “Avian cartilage in vitro, % increase, dry weight” value ([3]; 10^-9 M) was 35.3%, the “Avian cartilage in vitro, % increase, ^3 H proline” value ([3]; 10^-10 M) was 145.4% and the “Avian cartilage in vitro, % increase, ^3 H thymidine” value ([3]; 10^-10 M) was 44.3%. For the same molecule, the “Avian cartilage in vitro, % increase, ^35 S” value ([3]; 10^-10 M) was 30.1%, the “Avian cartilage in vitro, % increase, dry weight” value ([3]; 10^-10 M) was 29.1% and the “Avian cartilage in vitro, % increase, ^3 H proline” value ([3]; 10^-11 M) was 131.4%. For the same molecule, the “Avian cartilage in vitro, % increase, ^35 S” value ([3]; 10^-11 M) was 26.3%, the “Avian cartilage in vitro, % increase, dry weight” value ([3]; 10^-11 M) was 29.8% and the “Avian cartilage in vitro, % increase, ^3 H proline” value ([3]; 10^-12 M) was 65.0%. For the same molecule, the “Avian cartilage in vitro, % increase, ^3 H thymidine” value ([3]; 10^-12 M) was 62.5%, the “Avian cartilage in vitro, % increase, dry weight” value ([3]; 10^-12 M) was 31.2% and the “Avian cartilage in vitro, % increase, ^3 H proline” value ([3]; 10^-13 M) was 36.0%. The “Avian cartilage in vitro, % increase, ^3 H thymidine” value ([3]; 10^-13 M) was 57.9%, the “Avian cartilage in vitro, % increase, ^35 S” value ([3]; 10^-13 M) was 21.5% and the “Avian cartilage in vitro, % increase, dry weight” value ([3]; 10^-13 M) was 20.5%. For the same molecule, the “% of 1,25-(OH)2 D3 effect in rat, bone calcium mobilization” value (Bone Ca resorption (BCR)) was 64%.
For `C=C1/C(=C\C=C2/CCC[C@]3(C)[C@@H]([C@H](C)CCCC(C)(C)O)CC[C@@H]23)C[C@@H](O)C[C@@H]1O` [1,25-(OH)2 D3, 1α,25-dihydroxycholecalciferol, reference compound], the “% of 1,25-(OH)2 D3 effect in rat, intestinal calcium absorption” value [1] was 100%, the “Body Weight” value (vitamin D deficient rats; [4]) was 156 ± 15 gr and the “Serum Creatinine” value (vitamin D deficient rats; [4]) was 0.35 ± 0.02 mg/dL. For the same molecule, the “Bone Mass” value (vitamin D deficient rats; [4]) was 296 ± 56 ^mm.spsp.3 /cm^3, the “Body Weight” value (vitamin D deficient rats; [5]) was 192 ± 4.5 gr and the “Serum Ca^2+” value (vitamin D deficient rats; [5]) was 11.87 ± 0.16 mg/dL. The “Serum Creatinine” value (vitamin D deficient rats; [5]) was 0.37 ± 0.04 mg/dL, the “Bone Mass” value (vitamin D deficient rats; [5]) was 156 ± 16 ^mm.spsp.3 /cm^3 and the “Serum Ca^2+” value (vitamin D deficient rats; rat, in vivo) was 11.92 ± 0.40 mg/dL. The “Porcine cartilage in vitro, % increase, ^3 H” value ([2]; 10^-9 M) was 300%, the “Porcine cartilage in vitro, % increase, ^35 S” value ([2]; 10^-9 M) was 280% and the “Porcine cartilage in vitro, % increase, dry weight” value ([2]; 10^-9 M) was 49%. For the same molecule, the “Porcine cartilage in vitro, % increase, ^3 H” value ([2]; 10^-10 M) was 0%, the “Porcine cartilage in vitro, % increase, ^35 S” value ([2]; 10^-10 M) was 0% and the “Porcine cartilage in vitro, % increase, dry weight” value ([2]; 10^-10 M) was 0%. The “Porcine cartilage in vitro, % increase, ^3 H” value ([2]; 10^-11 M) was 0%, the “Porcine cartilage in vitro, % increase, ^35 S” value ([2]; 10^-11 M) was 0% and the “Porcine cartilage in vitro, % increase, dry weight” value ([2]; 10^-11 M) was 0%. The “Avian cartilage in vitro, % increase, dry weight” value ([3]; 10^-9 M) was 31.8%, the “Avian cartilage in vitro, % increase, ^3 H proline” value ([3]; 10^-10 M) was 122% and the “Avian cartilage in vitro, % increase, ^35 S” value ([3]; 10^-10 M) was 21.8%. For the same molecule, the “Avian cartilage in vitro, % increase, dry weight” value ([3]; 10^-10 M) was 27.2%, the “Avian cartilage in vitro, % increase, ^3 H proline” value ([3]; 10^-11 M) was 68.3% and the “Avian cartilage in vitro, % increase, ^35 S” value ([3]; 10^-11 M) was 13.8%. For the same molecule, the “Avian cartilage in vitro, % increase, dry weight” value ([3]; 10^-11 M) was 24.1%, the “Avian cartilage in vitro, % increase, ^3 H proline” value ([3]; 10^-12 M) was 46.3% and the “Avian cartilage in vitro, % increase, ^35 S” value ([3]; 10^-12 M) was 8.6%. For the same molecule, the “Avian cartilage in vitro, % increase, dry weight” value ([3]; 10^-12 M) was 22.6% and the “% of 1,25-(OH)2 D3 effect in rat, bone calcium mobilization” value (Bone Ca resorption (BCR)) was 100%.
For `[2H]C([2H])([2H])C(O)(C([2H])([2H])[2H])C([2H])([2H])CC[C@@H](C)[C@H]1CC[C@H]2/C(=C/C=C3/C[C@@H](O)C[C@H](O)C3=C)CCC[C@]12C` [1,25-(OH)2 D3 -Octa^2 H, 24,24,26,26,26,27,27,27-octadeutero-1α,25-dihydroxycholecalciferol], the “Porcine cartilage in vitro, % increase, ^3 H” value ([2]; 10^-9 M) was 150%, the “Porcine cartilage in vitro, % increase, ^35 S” value ([2]; 10^-9 M) was 490% and the “Porcine cartilage in vitro, % increase, dry weight” value ([2]; 10^-9 M) was 60%. The “Porcine cartilage in vitro, % increase, ^3 H” value ([2]; 10^-10 M) was 75%, the “Porcine cartilage in vitro, % increase, ^35 S” value ([2]; 10^-10 M) was 410% and the “Porcine cartilage in vitro, % increase, dry weight” value ([2]; 10^-10 M) was 50%. For the same molecule, the “Porcine cartilage in vitro, % increase, ^3 H” value ([2]; 10^-11 M) was 20%, the “Porcine cartilage in vitro, % increase, ^35 S” value ([2]; 10^-11 M) was 95% and the “Porcine cartilage in vitro, % increase, dry weight” value ([2]; 10^-11 M) was 42%. The “Avian cartilage in vitro, % increase, ^35 S” value ([3]; 10^-9 M) was 10.8%, the “Avian cartilage in vitro, % increase, dry weight” value ([3]; 10^-9 M) was 28.0% and the “Avian cartilage in vitro, % increase, ^3 H thymidine” value ([3]; 10^-10 M) was 25.0%. The “Avian cartilage in vitro, % increase, dry weight” value ([3]; 10^-10 M) was 21.6%, the “Avian cartilage in vitro, % increase, ^3 H thymidine” value ([3]; 10^-11 M) was 20.7% and the “Avian cartilage in vitro, % increase, dry weight” value ([3]; 10^-11 M) was 17.0%. For the same molecule, the “Avian cartilage in vitro, % increase, ^3 H thymidine” value ([3]; 10^-12 M) was 15.3%, the “Avian cartilage in vitro, % increase, dry weight” value ([3]; 10^-12 M) was 10.3% and the “% of 1,25-(OH)2 D3 effect in rat, bone calcium mobilization” value (Bone Ca resorption (BCR)) was 147%.
